± gives the expanded uncertainty stated by the source.
Assay: xn = mol fraction of the nth substance listed
Settings: 100 kPa, Liquid; for speed of sound: Frequency=3 MHz, Single path-length method; for mass density: Vibrating tube method

NCc1ccccc1 [benzylamine] + C[S+](C)[O-]
speed of sound (293.15 K, x2 = 0): 1579.7 ± 1.7 m/s
speed of sound (293.15 K, x2 = 0.1031): 1578.5 ± 1.7 m/s
speed of sound (293.15 K, x2 = 0.1998): 1575.9 ± 1.6 m/s
speed of sound (293.15 K, x2 = 0.2979): 1571.1 ± 1.6 m/s
speed of sound (293.15 K, x2 = 0.399): 1565.5 ± 1.6 m/s
speed of sound (293.15 K, x2 = 0.4991): 1558.8 ± 1.6 m/s
speed of sound (293.15 K, x2 = 0.5886): 1551.6 ± 1.5 m/s
speed of sound (293.15 K, x2 = 0.6999): 1540.9 ± 1.5 m/s
speed of sound (293.15 K, x2 = 0.8029): 1530 ± 1.5 m/s
speed of sound (293.15 K, x2 = 0.8991): 1517.7 ± 1.5 m/s
speed of sound (293.15 K, x2 = 0.9493): 1510.6 ± 1.5 m/s
mass density (293.15 K, x2 = 0): 983 ± 4 kg/m3
mass density (293.15 K, x2 = 0.1031): 992 ± 4 kg/m3
mass density (293.15 K, x2 = 0.1998): 1001 ± 4 kg/m3
mass density (293.15 K, x2 = 0.2979): 1011 ± 4 kg/m3
mass density (293.15 K, x2 = 0.399): 1021 ± 4 kg/m3
mass density (293.15 K, x2 = 0.4991): 1032 ± 4 kg/m3
mass density (293.15 K, x2 = 0.5886): 1043 ± 4 kg/m3
mass density (293.15 K, x2 = 0.6999): 1056 ± 4 kg/m3
mass density (293.15 K, x2 = 0.8029): 1070 ± 4 kg/m3
mass density (293.15 K, x2 = 0.8991): 1084 ± 4 kg/m3
mass density (293.15 K, x2 = 0.9493): 1092 ± 4 kg/m3
speed of sound (303.15 K, x2 = 0): 1540.2 ± 1.7 m/s
speed of sound (303.15 K, x2 = 0.1031): 1539.3 ± 1.7 m/s
speed of sound (303.15 K, x2 = 0.1998): 1536.1 ± 1.6 m/s
speed of sound (303.15 K, x2 = 0.2979): 1533.5 ± 1.6 m/s
speed of sound (303.15 K, x2 = 0.399): 1527.6 ± 1.6 m/s
speed of sound (303.15 K, x2 = 0.4991): 1521.6 ± 1.6 m/s
speed of sound (303.15 K, x2 = 0.5886): 1514.9 ± 1.5 m/s
speed of sound (303.15 K, x2 = 0.6999): 1504.8 ± 1.5 m/s
speed of sound (303.15 K, x2 = 0.8029): 1494.9 ± 1.5 m/s
speed of sound (303.15 K, x2 = 0.8991): 1483.3 ± 1.5 m/s
speed of sound (303.15 K, x2 = 0.9493): 1476.2 ± 1.5 m/s
mass density (303.15 K, x2 = 0): 974 ± 4 kg/m3
mass density (303.15 K, x2 = 0.1031): 983 ± 4 kg/m3
mass density (303.15 K, x2 = 0.1998): 992 ± 4 kg/m3
mass density (303.15 K, x2 = 0.2979): 1002 ± 4 kg/m3
mass density (303.15 K, x2 = 0.399): 1012 ± 4 kg/m3
mass density (303.15 K, x2 = 0.4991): 1023 ± 4 kg/m3
mass density (303.15 K, x2 = 0.5886): 1033 ± 4 kg/m3
mass density (303.15 K, x2 = 0.6999): 1047 ± 4 kg/m3
mass density (303.15 K, x2 = 0.8029): 1061 ± 4 kg/m3
mass density (303.15 K, x2 = 0.8991): 1075 ± 4 kg/m3
mass density (303.15 K, x2 = 0.9493): 1082 ± 4 kg/m3
speed of sound (313.15 K, x2 = 0): 1500 ± 1.7 m/s
speed of sound (313.15 K, x2 = 0.1031): 1500.2 ± 1.7 m/s
speed of sound (313.15 K, x2 = 0.1998): 1497.6 ± 1.6 m/s
speed of sound (313.15 K, x2 = 0.2979): 1494.6 ± 1.6 m/s
speed of sound (313.15 K, x2 = 0.399): 1490.3 ± 1.6 m/s
speed of sound (313.15 K, x2 = 0.4991): 1484.8 ± 1.6 m/s
speed of sound (313.15 K, x2 = 0.5886): 1478.6 ± 1.5 m/s
speed of sound (313.15 K, x2 = 0.6999): 1469.2 ± 1.5 m/s
speed of sound (313.15 K, x2 = 0.8029): 1460 ± 1.5 m/s
speed of sound (313.15 K, x2 = 0.8991): 1448.6 ± 1.5 m/s
speed of sound (313.15 K, x2 = 0.9493): 1442.2 ± 1.5 m/s
mass density (313.15 K, x2 = 0): 965 ± 4 kg/m3
mass density (313.15 K, x2 = 0.1031): 974 ± 4 kg/m3
mass density (313.15 K, x2 = 0.1998): 983 ± 4 kg/m3
mass density (313.15 K, x2 = 0.2979): 993 ± 4 kg/m3
mass density (313.15 K, x2 = 0.399): 1003 ± 4 kg/m3
mass density (313.15 K, x2 = 0.4991): 1014 ± 4 kg/m3
mass density (313.15 K, x2 = 0.5886): 1024 ± 4 kg/m3
mass density (313.15 K, x2 = 0.6999): 1038 ± 4 kg/m3
mass density (313.15 K, x2 = 0.8029): 1051 ± 4 kg/m3
mass density (313.15 K, x2 = 0.8991): 1065 ± 4 kg/m3
mass density (313.15 K, x2 = 0.9493): 1072 ± 4 kg/m3

Source: the NIST ThermoML archive (doi:10.1016/j.jct.2018.02.018)
